Source: patent US6852686B2, “Methods for ameliorating icthyosiform skin diseases” (The United States of America as represented by the …, priority 1999, dated 2005)

Experiments:
[1] = biological target: T1, TGase 1 (Homo sapiens, UniProt P22735); assay: Lipid Z esterification of involucrin by TGase 1 on SLV; format: biochemical
T1 construct: Recombinant full-length human TGase 1 and TGase 3 enzymes were expressed in Sf9 cells by the BaculoGold system; made in house; host or cells: Sf9 insect cells, BaculoGold baculovirus system, pVL1392 vector
T1 sequence (P22735 1-817): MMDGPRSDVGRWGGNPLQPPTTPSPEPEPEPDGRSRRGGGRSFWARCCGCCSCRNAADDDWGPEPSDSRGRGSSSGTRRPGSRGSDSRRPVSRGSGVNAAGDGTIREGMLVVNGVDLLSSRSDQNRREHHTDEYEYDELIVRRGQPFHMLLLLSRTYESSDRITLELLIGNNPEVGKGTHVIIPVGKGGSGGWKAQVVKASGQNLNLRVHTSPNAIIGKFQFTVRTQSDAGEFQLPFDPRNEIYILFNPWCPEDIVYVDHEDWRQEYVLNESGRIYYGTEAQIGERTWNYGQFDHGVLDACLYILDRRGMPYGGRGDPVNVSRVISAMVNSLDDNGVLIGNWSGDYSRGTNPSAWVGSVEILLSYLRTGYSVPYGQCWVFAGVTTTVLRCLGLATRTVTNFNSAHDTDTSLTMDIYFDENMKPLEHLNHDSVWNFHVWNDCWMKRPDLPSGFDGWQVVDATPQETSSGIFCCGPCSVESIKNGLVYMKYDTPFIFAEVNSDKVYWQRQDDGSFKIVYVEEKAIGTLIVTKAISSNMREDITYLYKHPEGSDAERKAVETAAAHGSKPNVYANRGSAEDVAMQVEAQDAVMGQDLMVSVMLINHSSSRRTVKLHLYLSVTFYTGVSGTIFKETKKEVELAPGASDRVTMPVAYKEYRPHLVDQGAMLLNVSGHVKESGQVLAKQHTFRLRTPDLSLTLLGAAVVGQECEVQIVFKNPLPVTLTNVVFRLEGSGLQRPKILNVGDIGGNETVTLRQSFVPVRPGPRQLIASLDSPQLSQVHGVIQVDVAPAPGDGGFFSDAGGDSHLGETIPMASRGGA

[2] = biological target: T1, TGase 1; assay: as above; format: biochemical; remark: listed apart in the source
Description: A mixture of 54 mol % dimyristoyl-phosphatidylcholine, 15 mol % dipalmitoyl-phosphatidylserine, 30 mol % cholesterol (all from Sigma, St. Louis, Mo.) and 1 mol % lipid Z was made in chloroform: methanol (9:1). This solution was dried down, taken up in aqueous buffer and dispersed by sonication as before (Nemes et al., J. Biol. Chem., 274: in press (1999)). The SLV suspension was equipped with TGase 1 enzyme by incubation at 37° C. for 15 min prior to adding substrates.
The reactions were stopped by the addition of EDTA to 10 mM.
Following reaction, 0.1 ml 20% SDS in water was added to the samples and the mixture was vortexed. This mixture was precipitated and washed three times with acetone-triethylamine-acetic acid (90:5:5) to remove the SDS and the unbound lipids (Konigsberg, W. H. and L. Henderson, Meth. Enzymol., 91: 254-259 (1983), herein expressly incorporated by reference in its entirety). After further washing with acetone the pellet was dried under vacuum and redissolved in 50 mM Tris-HCl (pH 7.5). Resolubilized protein was digested for 16 h with 2 mol % modified trypsin (Boehringer Mannheim). Peptides were resolved on a 250×2 mm PrimesphereC4 HPLC column (Phenomenex) and separated using a gradient elution from 75% buffer A (0.1% TFA in water) to 75% buffer B (50% 2-propanol in acetonitrile) in 40 min. Under these conditions, lipo-peptides were retarded but free peptides elute with the solvent front (Marekov, L. N. and P. M. Steinert, J. Biol. Chem., 273: 17763-17770 (1998), herein expressly incorporated by reference in its entirety).
Amino acid analysis of hydrolyzed samples (5.7 N HCl at 110° C. for 24 h in vacuo) was used to routinely measure amounts of lipo-peptides. Aliquots of isolated lipo-peptide peaks were attached to a solid support for sequencing (Marekov, L. N. and P. M. Steinert, J. Biol. Chem., 273: 17763-17770 (1998), herein expressly incorporated by reference in its entirety). Saponification of lipo-peptides was done with 1 N KOH in 80% methanol for 2 h at 37° C., after which the solution was acidified, dried and peptides were recovered by HPLC on a C18 column.

[3] = 0.3 nmol involucrin/μmol lipid, 4 h reaction

amount incorporated into SLV without interference with SLV stability or binding of involucrin and TGase 1 [1]: ≤ 25 mol %
KM of lipid Z incorporation into involucrin ([1]; rate linear up to 25 mol % lipid Z in SLV): > 100 mol %
maximum lipid ester formation for Gln 496 [2, 3]: < 0.05 mol/mol
maximum lipid ester formation per mole of Gln residues 107, 118, 122, and 133 [2, 3]: 0.1 to 0.3 mol/mol
incorporation rate into involucrin ([2]; SLV formulations with 1 mol % lipid Z): 2.2±0.3 fmol of lipid Z/s
SMILES: CCCCCCCCCCCCC/C=C/[C@@H](O)[C@H](CO)NC(=O)CCCCCCCCCCCCCCCOCCCCCCCCCCCCCCCCO [lipid Z, N-[16-(16-hydroxyhexadecyl)oxypalmitoyl]-sphingosine]
involucrin-lipid adduct formation by TGase 1 on SLV membranes ([2]; ceramide incorporated in SLV): formed saponifiable protein-lipid adducts
